Measured values from ChEMBL document CHEMBL1201862, “PubChem BioAssay data set” (2004).
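These data come from cells grown in 96-well plates and exposed to compound for 48 hours at five concentrations. The concentration for 50% growth inhibition is given as GI50.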 Active and inactive are the calls of the source. Cut-off read from the data, not from the text of the source: active = GI50 up to about 1.1 µM and inactive = higher.

What was measured:
Experiment in all cases: growth of human tumour cells (NCI), 48 h
786-0 = tested on: 786-0
A498 = tested on: A498
A549 = tested on: A549
ACHN = tested on: ACHN
BT-549 = tested on: BT-549
CAKI-1 = tested on: CAKI-1
CCRF-CEM = tested on: CCRF-CEM
COLO 205 = tested on: COLO 205
DU-145 = tested on: DU-145
EKVX = tested on: EKVX
HCC 2998 = tested on: HCC 2998
HCT-116 = tested on: HCT-116
HCT-15 = tested on: HCT-15
HOP-92 = tested on: HOP-92
HT-29 = tested on: HT-29
Hs-578T = tested on: Hs-578T
IGROV-1 = tested on: IGROV-1
K562 = tested on: K562
KM12 = tested on: KM12
LOX IMVI = tested on: LOX IMVI
M14 = tested on: M14
MCF7 = tested on: MCF7
MDA-MB-231 = tested on: MDA-MB-231
MDA-MB-435 = tested on: MDA-MB-435
MDA-N = tested on: MDA-N
MOLT-4 = tested on: MOLT-4
Malme-3M = tested on: Malme-3M
NCI-H226 = tested on: NCI-H226
NCI-H23 = tested on: NCI-H23
NCI-H460 = tested on: NCI-H460
NCI-H522 = tested on: NCI-H522
NCI/ADR-RES = tested on: NCI/ADR-RES
OVCAR-3 = tested on: OVCAR-3
OVCAR-4 = tested on: OVCAR-4
OVCAR-5 = tested on: OVCAR-5
OVCAR-8 = tested on: OVCAR-8
PC-3 = tested on: PC-3
RPMI-8226 = tested on: RPMI-8226
RXF 393 = tested on: RXF 393
SF-268 = tested on: SF-268
SF-295 = tested on: SF-295
SF-539 = tested on: SF-539
SK-MEL-28 = tested on: SK-MEL-28
SK-MEL-2 = tested on: SK-MEL-2
SK-MEL-5 = tested on: SK-MEL-5
SK-OV-3 = tested on: SK-OV-3
SN12C = tested on: SN12C
SNB-19 = tested on: SNB-19
SNB-75 = tested on: SNB-75
SW-620 = tested on: SW-620
T47D = tested on: T47D
TK-10 = tested on: TK-10
U-251 = tested on: U-251
UACC-257 = tested on: UACC-257
UACC-62 = tested on: UACC-62
UO-31 = tested on: UO-31
HL-60 = tested on: HL-60
HOP-62 = tested on: HOP-62

Measured: GI50

O=c1cc(N2CCN(c3cc(=O)n4ccccc4n3)CC2)oc2ccccc12
inactive: 786-0 > 76 µM | A498 > 84.5 µM | A549 32.3 µM | ACHN > 100 µM | BT-549 68.1 µM | CAKI-1 34 µM | CCRF-CEM 6.7 µM | COLO 205 61 µM | DU-145 > 100 µM | EKVX 31.2 µM | HCC 2998 33.5 µM | HCT-116 > 100 µM | HOP-92 72.4 µM | HT-29 38 µM | Hs-578T 36.2 µM | IGROV-1 95.5 µM | K562 47.1 µM | KM12 35.4 µM | LOX IMVI > 100 µM | M14 34.7 µM | MCF7 > 70.5 µM | MDA-MB-231 61.9 µM | MDA-MB-435 55 µM | MDA-N > 100 µM | MOLT-4 33.6 µM | Malme-3M > 100 µM | NCI-H226 > 76.2 µM | NCI-H23 99.1 µM | NCI-H460 26.6 µM | NCI-H522 29.8 µM | NCI/ADR-RES > 66.8 µM | OVCAR-3 > 100 µM | OVCAR-4 > 100 µM | OVCAR-5 > 100 µM | OVCAR-8 > 51.4 µM | PC-3 > 100 µM | RPMI-8226 23 µM | RXF 393 36.1 µM | SF-268 25.6 µM | SF-295 > 76.7 µM | SF-539 > 100 µM | SK-MEL-28 > 100 µM | SK-MEL-2 > 100 µM | SK-MEL-5 65.9 µM | SK-OV-3 > 100 µM | SN12C > 92.7 µM | SNB-19 > 55.5 µM | SNB-75 9.06 µM | SW-620 29.7 µM | T47D > 73.5 µM | TK-10 > 100 µM | U-251 > 58.1 µM | UACC-257 > 24 µM | UACC-62 > 100 µM | UO-31 38.1 µM
30.6 µM: HCT-15

Clc1ccccc1/C=c1\nc(-c2ccccc2)n2c1nc1ccccc12
inactive: 786-0 41.2 µM | A498 > 100 µM | A549 > 100 µM | ACHN > 100 µM | BT-549 18.2 µM | CAKI-1 68.7 µM | CCRF-CEM > 100 µM | COLO 205 > 100 µM | DU-145 > 100 µM | EKVX 13.4 µM | HCT-116 35.4 µM | HL-60 > 100 µM | HOP-62 20.8 µM | HOP-92 40.7 µM | HT-29 > 100 µM | Hs-578T 25.8 µM | IGROV-1 27.2 µM | K562 > 100 µM | KM12 > 100 µM | LOX IMVI > 100 µM | M14 > 100 µM | MCF7 > 100 µM | MDA-MB-231 22.8 µM | MDA-MB-435 > 100 µM | MDA-N 30.6 µM | MOLT-4 > 100 µM | Malme-3M > 100 µM | NCI-H226 > 100 µM | NCI-H23 17.8 µM | NCI-H460 > 100 µM | NCI/ADR-RES 40.9 µM | OVCAR-3 > 100 µM | OVCAR-4 > 100 µM | OVCAR-5 > 100 µM | OVCAR-8 31.2 µM | PC-3 4.66 µM | RPMI-8226 84.3 µM | RXF 393 18.2 µM | SF-268 19.8 µM | SF-295 10.7 µM | SF-539 20 µM | SK-MEL-28 > 100 µM | SK-MEL-2 45.3 µM | SK-MEL-5 > 100 µM | SK-OV-3 25.3 µM | SN12C > 100 µM | SNB-19 40.3 µM | SW-620 > 100 µM | T47D > 100 µM | TK-10 31.4 µM | U-251 21.7 µM | UACC-257 > 100 µM | UACC-62 30.8 µM | UO-31 > 100 µM
> 100 µM: HCT-15

C#CC(=O)OCC#CCOC(=O)C#C
active: LOX IMVI 1.05 µM
inactive: 786-0 15 µM | A498 > 100 µM | A549 27.9 µM | ACHN 18.3 µM | BT-549 18.6 µM | CAKI-1 19.8 µM | CCRF-CEM 15.9 µM | COLO 205 17.9 µM | DU-145 26.8 µM | EKVX 14.2 µM | HCC 2998 19.6 µM | HCT-116 15.7 µM | HOP-62 21.6 µM | HOP-92 16.9 µM | HT-29 23 µM | Hs-578T 27.8 µM | KM12 19.3 µM | M14 23.4 µM | MCF7 20.9 µM | MDA-MB-231 25.5 µM | MDA-MB-435 28.8 µM | MDA-N 38.8 µM | Malme-3M 19.1 µM | NCI-H226 19 µM | NCI-H23 23.3 µM | NCI-H460 > 100 µM | NCI-H522 3.23 µM | NCI/ADR-RES 24.9 µM | OVCAR-3 17.9 µM | OVCAR-8 30.8 µM | PC-3 28.7 µM | RPMI-8226 15.1 µM | RXF 393 19.1 µM | SF-268 > 100 µM | SF-295 > 100 µM | SF-539 15.3 µM | SK-MEL-2 20.2 µM | SK-MEL-5 72.9 µM | SK-OV-3 > 100 µM | SN12C 28.5 µM | SNB-19 > 100 µM | SW-620 20 µM | T47D 23.7 µM | TK-10 16.3 µM | U-251 17.5 µM | UACC-257 > 100 µM | UACC-62 22.7 µM | UO-31 9.14 µM
18.7 µM: HCT-15
